Results as given in patent US20100273748A1, “ANTIMICROBIAL THERAPY” (priority 2006, published 2010).

How the values were obtained:
[1] = system: Staphylococcus aureus mprF; experiment: Radial diffusion assay; format: cell-based
Procedure: Sweat collection and processing. Sweat was collected on paper tissues (Kimwipes, Kimberly-Clark, Ga.) from healthy volunteers after exercise. After collection, 20 ml of sweat was centrifuged at 2000 g for 15 min. at 4° C., filtered through a […] (Acrodisc syringe filter, 0.2 mm, low protein binding, Fisher scientific, Tustin, Calif.), and frozen at −80° C. For some experiments sweat was lyophilized to dryness, then suspended in 400 μl of distilled water (DW: cell culture grade, endotoxin free, GibcoBRL, Grand island, NY). For analysis of LL37 processing by sweat, 1.6 nmol of LL-37 synthetic peptide was incubated in 50 ml of sweat for 0, 1, 6, 24 hrs at 37° C. or 4° C. In some experiments proteinase inhibitors including; mixed protease inhibitor cocktail (1tab/10 ml, Roche, Indianapolis, Ind.), […] Bestatin, 10 mg/ml E-64, 10 mg/ml Aprotinin, (Sigma, St Louis, Mo.); 100 mM AEBSF, 100 mM Neutrophil elastase inhibitor (NEI) or 100 mM leukocyte elastase inhibitor (LEI) (Calbiochem, San Diego, Calif.) were added during incubation. After incubation, 2 ml was assayed by radial diffusion assay to determine antibacterial activity. For analysis by HPLC 32 nmoles LL-37 was incubated in 100u1. To control for potential contamination from paper tissues, parallel processing was done on tissues soaked in phosphate-buffered saline (PBS:137 mM NaCl, 2.7 mM KCL, 4.3 mM Na2HPO4-H2O, 1.4 mM KH2PO4, pH 7.4). No antimicrobial activity was detectable in these preparations. Protein concentrations were evaluated by BCA assay (protein assay reagent, Pierce, Rockford, Ill.) or Bradford protein assay (Bio-Rad, Hercules, Calif.) according to manufacture's instructions. Human tissue and blood collection was approved by the UCSD Human Research Protection Program.
Antimicrobial assays. For screening of antimicrobial activity of HPLC fractions, radial diffusion assay was used. Lyophilized HPLC fractions were dissolved in DW (GibcoBRL, Grand Island, N.Y.), and tested against Staphylococcus aureus mprF. Thin plates (1 mm) of 1% agarose in 0.5% tryptone containing approximately 1×10^6 cells/ml of S. aureus mprF were used. 1 mm wells were punched in the plates and […] of samples dissolved in tissue culture grade sterile water were loaded in each well.

[2] = system: wild-type S. aureus (clinical isolate); experiment: Radial diffusion assay; format: cell-based
[3] = system: enteroinvasive E. coli 029; experiment: Radial diffusion assay; format: cell-based
C. albicans = experiment: Liquid assay, minimum fungicide concentration; format: cell-based, Candida albicans
Procedure: Action against the C. albicans was determined in Dixon medium (0.6% Peptone, 4% Malt Extract, 1% Glucose, 0.1% Ox Bile, 1% Tween-80) in sterile 96-well microtiter plates (Corning Inc., Corning, N.Y.) at a final volume of 50 ml. […] Microtiter plates were incubated at 37° C. for 24 h with peptides, then plated on Dixon agar to determine the MFC (minimum fungicide concentration).

[4] = system: Group A Streptococcus (NZ131)
Procedure: Solution killing was done in 10% TSB in 10 mM PB (TSB=30 gm/L Tryptic Soy Broth, Sigma, St Louis Mo.; 20×PB=27.6 g/L NaH2PO4-H2O, 53.65 g/L Na2HPO4-7H2O, pH 7.4). Bacteria in log-phase growth were suspended to 1×10^6 cells/ml, peptide added and incubated at 37° C. for 2 hr. Bacteria were then plated on TSB agar (TSB, Bactoagar 13 g/L, Becton Dickinson, Sparks Md.) for direct colony count and determination of CFU.
Activity against Group A Streptococcus (NZ131) was done only in solution assay as described.

cathelicidin [5] = experiment: qPCR of cathelicidin mRNA in cultured keratinocytes; format: cell-based, human
Procedure: Cell culture and stimuli. Human keratinocytes were grown in serum-free EpiLife® cell culture media (Cascade Biologics; Portland, Oreg.) containing 0.06 mM Ca2+ and 1× EpiLife® defined growth supplement (EDGS) at 37° C. under standard tissue culture conditions. Stock cultures were maintained for up to five passages in this media with the addition of 50 U/mL penicillin and 50 μg/mL streptomycin. HaCaT keratinocytes were cultured in DMEM (Sigma, St. Louis, Mo.) with 10% FCS. Cells at 50-70% confluence were stimulated in fresh medium after preincubation with 1,25(OH)2 vitamin D3 (1,25D3; 0.1-100 nM, 4-24 h; Sigma). Alternatively, NHEK were stimulated in the presence of 1,25D3 (0.1-100 nM). Stimuli included TLR2,6 ligands Malp-2 (0.001-0.5 μg/ml; Alexis Biochemicals, Carlsbad, Calif.), FSL-1 (1-2 μg/ml, Invivogen, San Diego, Calif.) and zymosan (50 μg/ml; Invivogen), as well as flagellin (50 ng/ml; Alexis), LPS (1 μg/ml; Sigma), lipoteichoic acid (LTA; 10 μg/ml; Sigma), 19 kDA lipopeptide (10 μg/ml, a kind gift from S. Krutzik, Division of Dermatology, UCLA), CpG DNA (10 μg/ml; Sigma), Ca2+ (1.7 mM), LPS (1 μg/ml; Sigma), TNFα (20 ng/ml; Chemicon Temecula, Calif.) and TGFβ1 (0.1-1 μg/ml; R&D Systems, Minneapolis, Minn.). A TLR2 blocking antibody (αTLR2; clone TL2.1, 5 μg/ml, eBioscience, San Diego, Calif.) was utilized to investigate the role of TLR2 signaling. Furthermore, keratinocytes were pretreated with a vitamin D receptor antagonist (VDR-antagonist ZK159222 Schering AG; 10^-7M) or the CYP inhibitor itraconazole (ITRA; 10^-7M) before stimulation with TGFβ in the presence of 25OH vitamin D3 (25D3, 10 nM, Sigma).
Real-time RT-PCR (qPCR). RNA was extracted from cells, epidermal constructs or tissue using Trizol® and 1 μg RNA was reverse transcribed using iScript® (BioRad, Hercules, Calif.). Expression of cathelicidin and GAPDH was analysed by real-time RT-PCR. Predeveloped Taqman® assay probes (ABI, Foster City, Calif.) were used for the analyses of the expression of CYP24A1 (24-hydroxylase), CYP27B1 (1α-hydroxylase), CD14, CD36, TLR1, TLR2, TLR4, TLR6 and murine CD14. All analyses were performed in triplicate from 2-5 independent experiments in an ABI Prism® 7000 Sequence Detection System. Fold induction relative to the vehicle treated control in in vitro experiments was calculated using the comparative Ct method, where ΔΔCt is ΔCt(stimulant)-ΔCt(vehicle), ΔCt is Ct(gene)-Ct(GAPDH) and Ct is the cycle at which an arbitrary detection threshold is crossed. For quantification of transcript abundance in tissue samples target gene expression was normalized to GAPDH and compared to non-treated or non-injured skin.

CYP27B1 = experiment: qPCR of CYP27B1 mRNA in cultured keratinocytes; format: cell-based, human; conditions: 24 hours, TGF 1 μg/ml, TNFα 20 ng/ml, TLR2 ligand Malp-2
Procedure: (§1) Cell culture and stimuli. Human keratinocytes were grown in serum-free EpiLife® cell culture media (Cascade Biologics; Portland, Oreg.) containing 0.06 mM Ca2+ and 1× EpiLife® defined growth supplement (EDGS) at 37° C. under standard tissue culture conditions. Stock cultures were maintained for up to five passages in this media with the addition of 50 U/mL penicillin and 50 μg/mL streptomycin. HaCaT keratinocytes were cultured in DMEM (Sigma, St. Louis, Mo.) with 10% FCS. Cells at 50-70% confluence were stimulated in fresh medium after preincubation with 1,25(OH)2 vitamin D3 (1,25D3; 0.1-100 nM, 4-24 h; Sigma). Alternatively, NHEK were stimulated in the presence of 1,25D3 (0.1-100 nM). […]
(§2) Real-time RT-PCR (qPCR). […] Expression of cathelicidin and GAPDH was analysed by real-time RT-PCR. […] Fold induction relative to the vehicle treated control in in vitro experiments was calculated using the comparative Ct method, where ΔΔCt is ΔCt(stimulant)-ΔCt(vehicle), ΔCt is Ct(gene)-Ct(GAPDH) and Ct is the cycle at which an arbitrary detection threshold is crossed. For quantification of transcript abundance in tissue samples target gene expression was normalized to GAPDH and compared to non-treated or non-injured skin.

IL-8 = experiment: qPCR of IL-8 transcript in cultured keratinocytes; format: cell-based, human; conditions: Malp-2 (0.1 μg ml^−1) only
Procedure: as §1, §2

cathelicidin [6] = experiment: Cathelicidin peptide immunostaining in organotypic epidermal constructs; format: cell-based, human
Excerpt: Organotypic culture. Epiderm™ human skin-like tissue constructs were obtained from MatTek (Ashland, Mass.) and cultured according to manufacturer's instructions. […] Skin constructs were cut after stimulation and transferred to Trizol® (Invitrogen, Carlsbad, Calif.) for RNA extraction or immediately frozen in Tissue-Tek® (Sakura, Torrance, Calif.) for immunostaining.
Immunostaining. After fixation in 2% PFA and subsequent washings in PBS, sections from skin tissue or epidermal constructs were blocked in 3% BSA in PBS for 30 min at RT and stained with anti-cathelicidin LL-37 primary antibody or preimmune serum. After washings in PBS, slides from epidermal constructs were re-probed with a FITC labeled goat anti-chicken antibody. Nuclei were detected with DAPI. After subsequent washings with PBS slides, were mounted in ProLong Anti-Fade reagent (Molecular Probes, Eugene, Oreg.) and evaluated with an Olympus BX41 microscope (Olympus, Melville, N.Y.). Paraffin embedded formalin fixed tissue sections were rehydrated in a series of toluene, ethanol, and PBS. Endogenous peroxidase activity was quenched by 30 min incubation in 0.3% H2O2 in water, and sections microwaved for 4 min in antigen retrieval solution (0.01M citric acid, 0.05M

cathelicidin promoter = experiment: Cathelicidin (CAMP) promoter luciferase reporter in HaCat keratinocytes; format: cell-based, human
Excerpt: Promoter analysis and site directed mutagenesis. […]. Primers were designed to introduce an NheI restriction site at the 5″end and an XhoI restriction site at the 3″end of the amplicon. The amplification product was cloned into the TOPO vector (Invitrogen) and transformed into E. coli TOP10 OneShot competent cells (Invitrogen). After DNA purification using the WizardPLus, SV Miniprep purification system (Promega, Madison, Wis.) the construct was digested with NheI and XhoI and then subcloned into the promoterless pGL3-basic firefly luciferase vector (Promega). […]. The resulting plasmid lacking the VDRE binding site cloned in the pGL3-basic vector was termed pGL-3 1500-VDRE. All resulting constructs were confirmed by sequencing. For transfection HaCat cells were seeded in 24 well plates (BD Biosciences) and used for transfection at 50 to 70% confluence. Cells were transfected with the indicated CAMP reporter plasmids and 0.1 μg of an internal-control Renilla luciferase expression plasmid (pRL-TK; Promega, Madison, Wis.) by using 1.5 μl of transfection reagent Fugene 6 (Roche) according to the manufacturer's instructions. […] Firefly luciferase activity from the CAMP pGL3 reporter vectors and Renilla luciferase activity were measured by the Dual Luciferase Assay system (Promega) in a luminometer (Optocomp I, MGM Instruments, Hamden, Conn.). […]

acetylated histone H4 = experiment: Histone H4 acetylation in keratinocytes (immunofluorescence, Western blot); format: cell-based, human; conditions: NHEK stimulated with butyrate or TLR ligand
Procedure: Panel a; Immunofluorescence staining of acetylated histone H4 protein in NHEK treated with HDACi in the presence or absence of 1,25D3. […] Panel b: Western blot of acetylated histone 4 from keratinocytes treated with the HDACi butyrate or TLR agonists. […] Bar=30 μM.
The abundance of acetylated histone was directly measured to confirm the inhibitory effects of butyrate and TSA on HDACs. […] To determine if changes in histone acetylation occur upon stimulation of keratinocytes with TLR ligands NHEK were stimulated with different TLR ligands and histone acetylation was assessed.

Staphylococcus aureus = experiment: Bacterial growth inhibition (turbidity OD600) with or without carbonate; format: cell-based
E. coli = experiment: Bacterial growth inhibition with or without NaHCO3; format: cell-based
Group B Strep (GBS) = experiment: Bacterial growth inhibition with or without NaHCO3; format: cell-based; conditions: 16 uM CRAMP without NaHCO3
Salmonella = experiment: Bacterial growth inhibition with or without NaHCO3; format: cell-based; conditions: 16 uM CRAMP without NaHCO3
antigen presentation = experiment: Antigen presentation in vitro; format: cell-based
[7] = 16 uM CRAMP without 50 mM NaHCO3

SSLLEKGLDGAKKAVGGLGKLGKDAVEDLESVGKGAVHDVKDVLDSV [DCD]
Radial Diffusion Assay, minimal inhibitory concentration (MIC), S. aureus mprF (head printed truncated: aureus cF) [1]: 4 μm | Radial Diffusion Assay, minimal inhibitory concentration (MIC), S. aureus (wt) [2]: 4 μm | Radial Diffusion Assay, minimal inhibitory concentration (MIC), E. coli (O29)) [3]: 4 μm | Liquid Assay, minimal concentration required to kill C. albicans ATCC 14053 (head printed truncated: albicans CC 14053) (C. albicans): 7 μm | Liquid Assay, minimal concentration required to kill GAS (NZ131) [4]: 4 μm

Malp-2
cathelicidin transcript abundance (cathelicidin [5]; Malp-2 (0.1 μg ml^−1) alone): has no effect | cathelicidin response to Malp-2 (cathelicidin [5]; keratinocyte monolayers in high calcium (1.7 mM), no 1,25D3): did not respond to TLR2,6 activation by Malp-2 | cathelicidin expression in response to TLR ligand (cathelicidin [5]; keratinocytes pretreated with 1,25D3 0.1 nM 24 hours, then TLR ligand 24 hours): responded to Malp-2 | CYP27B1 expression (CYP27B1): could be induced | IL-8 expression (IL-8): increased when stimulated with only Malp-2 | cathelicidin peptide response to Malp-2 (cathelicidin [6]; Malp-2 0.1 μg/ml with 1,25D3 (100 nM)): did after its addition | cathelicidin peptide response to Malp-2 (cathelicidin [6]; Malp-2 0.1 μg/ml, absence of 1,25D3): did not respond to Malp-2 in the absence of 1,25D3 | cathelicidin promoter activity (cathelicidin promoter; Malp-2 0.1 μg/ml in the presence of 1,25D3 (100 nM), construct including the VDRE): responsive to Malp-2 | cathelicidin promoter activity (cathelicidin promoter; absence of 1,25D3 or the VDRE): no significant effect | acetylation of histone H4 (acetylated histone H4): also increased histone acetylation

CRAMP
susceptibility to peptide (Staphylococcus aureus; 16 uM CRAMP with 50 mM NaHCO3): became susceptible | susceptibility to peptide (Staphylococcus aureus; [7]): resistant | change of minimal inhibitory concentration (MIC) by NaHCO3 (Staphylococcus aureus; 20% TSB, 1 mM NaH2PO4, with or without 50 mM NaHCO3, pH 7.4): greatly reduced | susceptibility to peptide (E. coli; 16 uM CRAMP with 50 mM NaHCO3): became susceptible | susceptibility to peptide (E. coli; [7]): resistant | susceptibility to peptide (Group B Strep (GBS)): susceptible even without NaHCO3 | susceptibility to peptide (Salmonella): susceptible even without NaHCO3 | antigen presentation in vitro (antigen presentation): inhibits antigen presentation in vitro
